In article PMC13065029 (PLOS One, 2026):
Read-outs that look alike come from different tables or passages of the source.

T1: Chikungunya virus (CHIKV) nsP2 protease (Chikungunya virus)
T1 chain: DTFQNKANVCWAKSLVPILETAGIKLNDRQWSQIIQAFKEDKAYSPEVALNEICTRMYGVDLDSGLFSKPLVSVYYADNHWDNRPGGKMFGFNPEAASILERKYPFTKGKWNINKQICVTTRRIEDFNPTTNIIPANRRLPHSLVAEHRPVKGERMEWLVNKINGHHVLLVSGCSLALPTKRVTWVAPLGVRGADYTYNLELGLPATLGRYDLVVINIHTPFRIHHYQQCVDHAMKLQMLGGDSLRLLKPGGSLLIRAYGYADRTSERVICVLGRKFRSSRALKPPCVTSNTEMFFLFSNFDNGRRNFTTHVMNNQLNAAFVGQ


Assays:
[1] = molecular target: T2, CHIKV nsP2^pro (Chikungunya virus, UniProt Q8JUX6); settings: FRET; ref [18]; read-out: IC₅₀; cited from earlier work
[2] = molecular target: T2, CHIKV nsP2^pro; settings: fluorometry; ref [18]; cited from earlier work
[3] = molecular target: T2, CHIKV nsP2^pro; settings: ref [18]; cited from earlier work
[4] = molecular target: T2, CHIKV nsP2^pro; settings: MST; ref [67]; cited from earlier work
[5] = test system: Human alphaherpesvirus 1 (HSV-1); settings: cited from earlier work
[6] = test system: Dengue virus; settings: cited from earlier work
[7] = test system: Yellow Fever virus; settings: cited from earlier work
[8] = molecular target: T1, Chikungunya virus (CHIKV) nsP2 protease; test: BLI; settings: both partners purified

Row | Molecule | IC50 [1] [µM] | Kd [2] [µM] | Inhibition Mode [3] | other results
1 | COc1ccc([C@@H]2CC(=O)c3c(O)cc(O)cc3O2)cc1O [Hesperetin (HST), Hesperetin] | 2.5 ± 0.4 | 31.6 ± 2.5 | Noncompetitive | 
2 | COc1ccc([C@@H]2CC(=O)c3c(O)cc(O[C@@H]4O[C@H](CO[C@@H]5O[C@@H](C)[C@H](O)[C@@H](O)[C@H]5O)[C@@H](O)[C@H](O)[C@H]4O)cc3O2)cc1O [Hesperidin (HSD), Hesperidin] | 7.1 ± 1.1 | 40.7 ± 2 | Noncompetitive | 
3 | CC1=C(CO)C(=O)O[C@@H]([C@@H](C)[C@H]2CC[C@H]3[C@@H]4C[C@H]5O[C@]56[C@@H](O)C=CC(=O)[C@]6(C)[C@H]4CC[C@]23C)C1 [Withaferin A (WFA), Withaferin A] |  |  |  | Kd [4]: 64 µM
4 | Mastoparan |  |  |  | antiviral activity [5]: antiviral activity
5 | Phospholipase A2 |  |  |  | antiviral activity [6]: antiviral activity; antiviral activity [7]: antiviral activity
6 | GILGKLWEGFKSIV (Stock of 10 mM in DMSO) [pantinin-1] |  |  |  | Kd [8]: 9.29 µM
